Source: article PMC6792352, “Limited Chemical Structural Diversity Found to Modulate Thyroid Hormone Receptor in the Tox21 Chemical Library” (Environmental Health Perspectives, 2019)
Counter-ions that a name gives are not always drawn.

Assay: in vitro
Conditions: rat, gh3-tre-luc cells, AC50 (uM) modified / 1000

Compound	CC50 at 24 h
CC(C)(Cc1c[nH]c2ccccc12)NCC(O)COc1ccccc1C#N (stereo not drawn) [Bucindolol]	20.5 µM
C=C(C)C1CC=C(C)[C@@H](O)C1 (stereo partly drawn) [Carveol]	> 90 µM
CCOC(=O)[C@@H](C)Oc1ccc(Oc2nc3ccc(Cl)cc3o2)cc1 [Fenoxaprop-P-ethyl]	> 90 µM
CCCCCC[n+]1ccccc1 [1-Hexylpyridinium bromide]	> 90 µM
COC1=C(C(=O)O)N2C(=O)[C@@H](NC(=O)[C@H](N)C3=CCC=CC3)[C@H]2SC1 [Cefroxadine]	> 50 µM
CCCCNCC [N-Ethyl-N-butylamine]	> 90 µM
C=CCOC(=O)/C=C\C(=O)OCC=C [Diprop-2-en-1-yl (2Z)-but-2-enedioate]	> 90 µM
CN[C@@H](C)[C@H](O)c1ccccc1 [Ephedrine hydrochloride]	> 50 µM
CO[C@H]1[C@@H](O)C[C@H](O[C@H]2[C@@H](O)C[C@H](O[C@H]3[C@@H](O)C[C@H](O[C@H]4CC[C@@]5(C)[C@H](CC[C@@H]6[C@@H]5C[C@@H](O)[C@]5(C)[C@@H](C7=CC(=O)OC7)CC[C@]65O)C4)O[C@@H]3C)O[C@@H]2C)O[C@@H]1C [Methyldigoxin]	> 50 µM
CO[C@H]1[C@@H](O)[C@H](N)[C@@H](O[C@H]2O[C@H]([C@H](C)N)CC[C@H]2N)[C@H](O)[C@@H]1N(C)C(=O)CN [Astromicin]	> 50 µM
NC(=O)OCC(O)COc1ccc(Cl)cc1 (stereo not drawn) [Chlorphenesin carbamate]	> 20 µM
O=C(Cl)c1cc(C(=O)Cl)cc(C(=O)Cl)c1 [1,3,5-Benzenetricarbonyl trichloride]	80 µM
CCCCCCCCCCCCCCCCCC(=O)OCC(C)O (stereo not drawn) [Octadecanoic acid, monoester with 1,2-propanediol]	20.7 µM
CCOC(=O)CCc1ccccc1 [Ethyl hydrocinnamate]	> 90 µM
CC(C)C(=O)OCCc1ccccc1 [2-Phenylethyl 2-methylpropanoate]	> 90 µM
C[Se]CC[C@H](N)C(=O)O [Selenomethionine]	> 50 µM
COc1cc(C(=O)N2CCCCCCC2)cc(OC)c1OC [Trocimine]	> 50 µM
CC(=O)OCC[N+](C)(C)C [Acetylcholine chloride]	> 50 µM
Nc1cc(S(=O)(=O)O)ccc1S(=O)(=O)O [2-Aminobenzene-1,4-disulfonic acid]	> 90 µM
CC(C)(C)c1cc(O)c(C(C)(C)C)cc1O [2,5-Di-tert-butylbenzene-1,4-diol]	37.2 µM

Compound	CC50 at 24 h
Fc1ccc(Br)cc1 [1-Bromo-4-fluorobenzene]	> 90 µM
CCN(CC)CCNc1ccc(CNC=O)c2sc3ccc(OC)cc3c(=O)c12 [SR271425]	11.7 µM
CCCCCCCCCCCCN(C)C [N,N-Dimethyldodecan-1-amine]	> 90 µM
Cc1c(C(=O)NN2CCCCC2)nn(-c2ccc(Cl)cc2Cl)c1-c1ccc(Cl)cc1 [Rimonabant]	13.9 µM
OCCOc1cccc(OCCO)c1 [2,2'-[Benzene-1,3-diylbis(oxy)]diethanol]	> 90 µM
CC1=CC(O)CC(C)(C)C1 (stereo not drawn) [3,5,5-Trimethyl-2-cyclohexen-1-ol]	> 90 µM
CC(CCc1ccccc1)NC(C)C(O)c1ccc(O)cc1 (stereo not drawn) [Nylidrin]	41.8 µM
O=P(O)(O)Oc1ccccc1 [Phenyl dihydrogen phosphate]	> 90 µM
CCCNC(C)C(=O)Nc1ccccc1C (stereo not drawn) [Prilocaine hydrochloride]	> 50 µM
CCOC(=S)SSC(=S)OCC [Bis(ethylxanthogen)]	> 90 µM
CCCSSCCC [Dipropyl disulfide]	> 90 µM
COc1ccc(C(C)=O)cc1 [4'-Methoxyacetophenone]	> 90 µM
Nc1ccc(Cl)cc1[N+](=O)[O-] [4-Chloro-2-nitroaniline]	> 90 µM
COc1ccc(CCC(=O)c2c(O)cc(O[C@@H]3O[C@H](CO)[C@@H](O)[C@H](O)[C@H]3O[C@@H]3O[C@@H](C)[C@H](O)[C@@H](O)[C@H]3O)cc2O)cc1O [Neohesperidin dihydrochalcone]	> 90 µM
CC(C)(O)c1coc(S(=O)(=O)NC(=O)Nc2c3c(cc4c2CCC4)CCC3)c1 [CP-456773]	> 90 µM
CN(C)c1ccc(CCO)cc1 [p-N,N-Dimethylaminophenethanol]	> 90 µM
C=CCCC(=O)O [4-Pentenoic acid]	> 90 µM
CC(C)OC(=S)S [Proxan-sodium]	> 90 µM
Cn1cc(C2=C(c3cn(C4CCN(Cc5ccccn5)CC4)c4ccccc34)C(=O)NC2=O)c2ccccc21 [Enzastaurin]	> 50 µM
CC(=O)CCc1ccc(OC(C)=O)cc1 [4-(4-(Acetyloxy)phenyl)-2-butanone]	> 90 µM

Compound	CC50 at 24 h
OCC1(CO)COC(C(Cl)(Cl)Cl)OC1 [Penthrichloral]	> 50 µM
CC(=O)c1ccc(S(=O)(=O)NC(=O)NC2CCCCC2)cc1 [Acetohexamide]	> 90 µM
NNS(=O)(=O)c1ccc(Oc2ccc(S(=O)(=O)NN)cc2)cc1 [4,4'-Oxybis(benzenesulfohydrazide)]	> 90 µM
CC[C@H]1[C@@H]2C[C@H]3[C@@H]4N(C)c5ccccc5[C@]45C[C@@H]([C@H]2[C@H]5O)N3[C@@H]1O [Ajmaline]	> 20 µM
CC(=O)NCc1c(I)c(NC(C)=O)c(I)c(C(=O)O)c1I [Iodamide]	> 50 µM
CCCCCCCCCCCCCCCCCCCCCCO [1-Docosanol]	> 50 µM
O=c1[nH]c2cc(C(F)(F)F)c(N3CCOCC3)cc2n(CP(=O)(O)O)c1=O [Fanapanel]	> 50 µM
COC(=O)CC(C)=O [Methyl acetoacetate]	> 90 µM
CC(=O)Nc1ccn(C2COC(COC(=O)c3ccccc3)O2)c(=O)n1 (stereo not drawn) [{4-[4-(Acetylamino)-2-oxopyrimidin-1(2H)-yl]-1,3-dioxolan-2-yl}methyl benzoate]	> 50 µM
CCCCCC=CCC1CC(=O)OC1=O (stereo not drawn) [2-Octen-1-ylsuccinic anhydride]	> 90 µM
CCOC(=O)[C@@](C)(N)Cc1ccc(O)c(O)c1 [Methyldopate hydrochloride]	> 20 µM
C=CC(=O)OCCCCCC [Hexyl acrylate]	> 90 µM
CC(O)C#CC(C)O (stereo not drawn) [Hex-3-yne-2,5-diol]	50.2 µM
COc1c(N2C[C@@H]3CCCN[C@@H]3C2)c(F)cc2c(=O)c(C(=O)O)cn(C3CC3)c12 [Moxifloxacin hydrochloride]	> 50 µM
Cc1ccc(C(C)(C)O)cc1 [p-Cymen-8-ol]	> 90 µM
O=C(NC(=O)c1c(F)cccc1F)Nc1cc(Cl)c(OC(F)(F)C(F)F)c(Cl)c1 [Hexaflumuron]	> 90 µM
CC(=O)N[C@@H](CCC(=O)O)C(=O)O [N-Acetyl-L-glutamic acid]	> 50 µM
O=C(O)c1cc(N=Nc2ccc([N+](=O)[O-])cc2)ccc1O [Alizarin Yellow R]	58 µM

Same assay, conditions: rat, gh3-tre-luc cells, AC50 (uM) modified / 1000, Tox21_110001=Tox21_112752; viability, 1 nM T3 present, 24 h

Compound	CC50 at 24 h
CCC1(CC)C(=O)NC(=O)N(C)C1=O [Metharbital]	> 50 µM

Same assay, conditions: rat, gh3-tre-luc cells, AC50 (uM) modified / 1000, Tox21_110001=Tox21_112831; viability, 1 nM T3 present, 24 h

Compound	CC50 at 24 h
CC[C@H](OC(C)=O)C(C[C@H](C)NC)(c1ccccc1)c1ccccc1 [L-alpha-Acetyl-N-normethadol hydrochloride]	17.4 µM

Same assay, conditions: rat, gh3-tre-luc cells, AC50 (uM) modified / 1000, Tox21_110001=Tox21_113018; viability, 1 nM T3 present, 24 h

Compound	CC50 at 24 h
C[C@H]1CNCCc2ccc(Cl)cc21 [Lorcaserin]	> 50 µM

Same assay, conditions: rat, gh3-tre-luc cells, AC50 (uM) modified / 1000, Tox21_110001=Tox21_113550; viability, 1 nM T3 present, 24 h

Compound	CC50 at 24 h
CC=C(CC)C(=O)NC(N)=O [1-(2-Ethylcrotonoyl)urea]	> 50 µM

Same assay, conditions: rat, gh3-tre-luc cells, AC50 (uM) modified / 1000, Tox21_110001=Tox21_301219; viability, 1 nM T3 present, 24 h

Compound	CC50 at 24 h
CCCSP(=S)(OCC)Oc1ccc(Cl)cc1Cl (stereo not drawn) [Prothiofos]	> 90 µM
